From article PMC10835127, “Viruses traverse the human proteome through peptide interfaces that can be biomimetically leveraged for drug discovery” (Proceedings of the National Academy of Sciences of the …, 2024)
Read-outs that look alike come from different tables or passages of the source. No end group written: not given here.

How the values were obtained:
HIV1 strain NL4-3 = type: cell-based; conditions: for HIV1 Norm MEAN: normalized mean of HIV1 replication readout
HCV replicon = type: cell-based; conditions: for HCV Norm MEAN: normalized mean of HCV replicon readout
[1] = system: F. novicida (strain U112); type: cell-based
influenza A H1N1 virus = conditions: 48 hr post-treatment, A549
EBV = conditions: for EBV Norm MEAN: normalized mean of EBV replication readout

Row | Substance | HIV1 Norm MEAN (HIV1 strain NL4-3; peptide screen) | HCV Norm MEAN (HCV replicon; peptide screen) | Francisella novicida Norm AUC [1] | Neuraminidase activity normalized to vehicle (influenza A H1N1 virus; 200 µM peptide) | Neuraminidase activity normalized to vehicle (influenza A H1N1 virus; 0,823 µM peptide) | Neuraminidase activity normalized to vehicle (influenza A H1N1 virus; 22,2 µM peptide) | Neuraminidase activity normalized to vehicle (influenza A H1N1 virus; 2,4691 µM peptide) | Neuraminidase activity normalized to vehicle (influenza A H1N1 virus; 7,4074 µM peptide) | Neuraminidase activity normalized to vehicle (influenza A H1N1 virus; 66,6667 µM peptide) | EBV Norm MEAN (EBV; peptide screen) | HIV1 Norm MEAN (HIV1 strain NL4-3) | HCV Norm MEAN (HCV replicon) | EBV Norm MEAN (EBV) | activity in HCV screen (in words) (HCV replicon; 20 µM peptide, Huh7, replicon luciferase) | activity in HIV1 screen (in words) (HIV1 strain NL4-3; 20 µM peptide, HeLa P4 cells, β-galactosidase) | Francisella novicida Norm AUC ([1]; normalized area under the curve) | inhibition of EBV late gene reporter signal (EBV; 48 h, 20 µM) [%]
1 | PVHAGPIAPGQMREP [CPEP81] | 0.8771 | 0.6759 | 1.038 | 0,9395 | 0,9268 | 1,0319 | 1,0385 | 1,0221 | 1,026 | 0.3978 | – | – | – | – | – | – | –
2 | PVQES [CPEP44] | – | – | 0.7515 | 0,8825 | 0,8116 | 0,9052 | 0,843 | 0,7952 | 1,0152 | – | 2.9976 | 0.1889 | 1.192 | – | – | – | –
3 | PVQLSYYD [CPEP144] | – | – | 1.621 | 0,7318 | 1,0036 | 0,9081 | 0,8026 | 0,9626 | 0,8536 | – | 1.139 | 0.1325 | 1.072 | peptide inhibiting HCV | – | – | –
4 | PYQLT [CPEP58] | – | – | 0.486 | 0,7155 | 0,7664 | 0,8252 | 0,7115 | 0,806 | 0,8444 | – | 1.506 | 0.1961 | 0.8535 | – | – | – | –
5 | QILVESPTVLESGTKE [CPEP80] | 0.6346 | 0.9076 | 0.9366 | 0,8685 | 1,0444 | 1,1492 | 1,0137 | 1,0974 | 0,9708 | 0.8761 | – | – | – | – | – | – | –
6 | QRRGRTGRG [CPEP40] | – | – | 1.732 | 0,9281 | 1,0647 | 1,004 | 0,9944 | 1,0761 | 0,9318 | – | 0.4037 | 0.7133 | 0.7195 | – | – | – | –
7 | RDVLCLRPVGAESR [CPEP94] | 0.3822 | 0.7235 | 1.032 | 0,3954 | 0,7797 | 0,8926 | 0,8827 | 0,8423 | 0,695 | 0.9161 | – | – | – | – | – | – | –
8 | RHFPRIW [CPEP146] | – | – | 1.892 | 0,7481 | 0,8163 | 0,8498 | 0,7842 | 0,7775 | 0,9221 | – | 0.9815 | 0.2243 | 1.3564 | – | – | – | –
9 | RHIICHGGVI [CPEP133] | – | – | 0.5145 | 0,0947 | 0,951 | 0,4954 | 0,9186 | 0,811 | 0,1797 | – | 7.136 | 0.3927 | 1.143 | – | – | – | –
10 | RKSASMS [CPEP82] | – | – | 1.194 | 0,8479 | 0,801 | 0,7544 | 0,6968 | 0,5924 | 0,9164 | – | 1.975 | 0.267 | 1.372 | – | – | – | –
11 | RPEPTAPPEE [CPEP116] | – | – | 0.6494 | 0,7624 | 0,9564 | 0,683 | 0,8677 | 0,7015 | 0,6644 | – | 0.3699 | 1.054 | 0.4152 | – | – | – | –
12 | RQARRNRRR [CPEP110] | – | – | 1.637 | 0,8723 | 1,0272 | 0,8952 | 0,9228 | 0,9411 | 0,8493 | – | 0.3127 | 0.05205 | 2.204 | – | – | – | –
13 | RRKAK [CPEP70] | – | – | 0.442 | 1,0392 | 0,9822 | 0,9863 | 0,9261 | 0,9473 | 1,0254 | – | 3.517 | 0.1385 | 1.652 | – | – | – | –
14 | RRPSRPFRK [CPEP88] | – | – | 1.028 | 0,55 | 0,9984 | 0,7716 | 0,8217 | 0,8463 | 0,6969 | – | 0.3045 | 0.6746 | 0.9654 | – | – | – | –
15 | RRRETQV [CPEP148] | – | – | 0.7414 | 0,7433 | 0,8071 | 0,8272 | 0,7477 | 0,8788 | 0,7757 | – | 0.7674 | 0.1353 | 1.54 | – | – | – | –
16 | RTYGTWEDLFCDESL [CPEP128] | 0.383 | 0.6752 | 0.8745 | 0,6933 | 0,9138 | 1,0305 | 1,0131 | 0,9772 | 1,0247 | 1.318 | – | – | – | – | – | – | –
17 | RYSKRRHGRR [CPEP118] | – | – | 1.247 | 0,7942 | 0,9639 | 0,7875 | 0,9014 | 0,7974 | 0,7776 | – | 1.129 | 0.2514 | 1.996 | – | – | – | –
18 | SAIASGIAVS [CPEP72] | – | – | 1.051 | 1,0607 | 1,0538 | 1,1913 | 1,1217 | 1,1419 | 1,1769 | – | 7.153 | 1.456 | 0.8997 | – | strongly | – | –
19 | SAPCLLKLSTTLLCLEI [CPEP124] | 14.9843 | 1.253 | 0.6911 | 0,1059 | 1,0611 | 0,6181 | 0,9657 | 1,0354 | 0,1507 | 0.5543 | – | – | – | – | – | – | –
20 | SEKHFRETEV [CPEP106] | – | – | 0.8616 | 1,1108 | 0,9396 | 1,0803 | 0,9387 | 1,0552 | 1,1055 | – | 0.4711 | 1.4 | 1.282 | – | – | – | –
21 | SEWQRDQFLSQVK [CPEP95] | – | – | – | 0,9927 | 0,9256 | 0,9538 | 0,9776 | 0,9237 | 1,0019 | – | 0.5103 | 0.2824 | 0.3991 | – | – | 1.114 | 60
